In one experiment the test system is IRAK1 and IRAK4. The following applies: reference [24]; cited from earlier work.
The test system of a further experiment is MDS. To be noted: references [20, 24]; cited from earlier work.
Another experiment deals with UMSCC1 cells. Kind of experiment: Flow cytometry for cleaved caspase-3 (apoptosis), UMSCC1. To be noted: UMSCC1, inhibitor vs DMSO, 72 hours, p<0.05. In kind it is cell-based, human. On the procedure:
Flow cytometry for Cleaved Caspase-3. Lentivirally transduced cells were plated at equal densities and collected 48 hours later. Cells were fixed and prepped following the BD FITC Active Caspase-3 Apoptosis kit protocol (BD Biosciences). Adenovirally transduced cells were prepped with an Alexa-Fluor 647 conjugated cleaved-caspase 3 antibody to account for GFP-positivity (Cell Signaling Technologies (9602)). Analysis was performed on a BD FacsCanto and data analyzed on FlowJo software (Tree Star, Ashland, Oreg., USA). Experiments were performed 3 times with standard error of the mean (SEM) represented.
IRAK1 inhibitor. UMSCC1 cells were plated at equal densities and IRAK1 inhibitor (IRAK-1/4 inhibitor, 15409, Sigma-Aldrich, St. Louis, Mo., USA) added the same day for caspase-3 flow cytometry experiments. DMSO was added in equal volume for a control.
(§1) Cells and media were collected 72 hours later and prepared and analyzed as above. For the time-course experiment, cells were plated and inhibitor was added the following day, with protein collected at 24, 48, and 72 hours and analyzed by western blot for IRAK1 inhibition.
(In flow cytometry, cells or beads pass a laser one at a time.)

The subject of another experiment is melanoma cells. The following applies: in vitro and in vivo, references [20, 24]; cited from earlier work.
The next experiment has as its target T1, IRAK1 (Homo sapiens, UniProt P51617).
T1 construct: endogenous in cells; host or cells: UMSCC1 and UMSCC47 cells
Kind of experiment: Western blot for IRAK1 activation (phospho-IRAK1 Thr209) in HNSCC cell lines. It is filed as cell-based. The following applies: 10 μM, 24-72 hours post-treatment, UMSCC1 and UMSCC47 cells. On the procedure:
Western blotting. Whole cell lysates were harvested using Laemmli buffer and a total of 20 μg of protein was analyzed as described previously. Membranes were probed with DEK (1:1000, BD Biosciences, San Jose, Calif., USA), IRAK1 (1:1000, Santa Cruz Biotechnology, Dallas, Tex., USA (sc-7883)), TRAF6 (1:1000, Santa Cruz (sc-7221)), phospho-IRAK1 (Thr209, 1:800, Assay Biotechnology Company (A1074), Sunnyvale, Calif., USA), phospho-p38 (1:500, Cell Signaling Technologies (4361)), p38 (1:1000, Cell Signaling Technologies (9212)), phospho-ERK1/2 (1:1000, Cell Signaling Technologies (4377)), ERK1/2 (1:1000, Cell Signaling Technologies (4695)), phospho-IKKa/r3 (1:500, Cell Signaling Technologies (2697)), IKKa (1:1000, Cell Signaling Technologies (2682)), phospho-hcBa (1:500, Cell Signaling Technologies (9246)), hcBa (1:1000, Cell Signaling Technologies (4812)), a-tubulin-HRP (1:10,000 Cell Signaling Technologies (9099)), actin (1:10,000 a gift from James Lessard), and GAPDH (1:1000, Cell Signaling Technologies (5174)).
IRAK1 inhibitor. […]
as §1
In general terms: A western blot detects proteins with antibodies after separation by electrophoresis.

T1 sequence (P51617 whole entry): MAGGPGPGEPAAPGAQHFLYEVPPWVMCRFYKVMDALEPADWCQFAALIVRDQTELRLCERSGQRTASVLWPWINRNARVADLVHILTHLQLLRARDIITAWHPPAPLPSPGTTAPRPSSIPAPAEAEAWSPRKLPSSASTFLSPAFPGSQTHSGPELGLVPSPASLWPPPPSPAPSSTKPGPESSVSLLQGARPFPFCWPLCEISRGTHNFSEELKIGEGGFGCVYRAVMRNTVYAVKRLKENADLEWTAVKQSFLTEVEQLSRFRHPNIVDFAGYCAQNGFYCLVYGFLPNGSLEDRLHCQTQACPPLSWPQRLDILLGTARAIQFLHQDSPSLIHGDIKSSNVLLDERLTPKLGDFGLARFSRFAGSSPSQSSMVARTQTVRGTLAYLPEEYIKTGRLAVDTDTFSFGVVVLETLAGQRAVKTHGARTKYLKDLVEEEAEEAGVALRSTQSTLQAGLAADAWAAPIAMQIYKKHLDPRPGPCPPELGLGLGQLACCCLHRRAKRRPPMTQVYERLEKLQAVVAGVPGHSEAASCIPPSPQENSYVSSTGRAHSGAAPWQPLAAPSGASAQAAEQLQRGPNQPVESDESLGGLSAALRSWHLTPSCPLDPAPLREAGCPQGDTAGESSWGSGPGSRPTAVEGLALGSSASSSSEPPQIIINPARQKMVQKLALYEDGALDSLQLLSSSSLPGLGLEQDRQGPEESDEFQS

For `O=C(Nc1nc2ccccc2n1CCN1CCOCC1)c1cccc([N+](=O)[O-])c1` [IRAK-1/4 inhibitor, N-(2-morpholinylethyl)-2-(3-nitrobenzoylamido)-benzimidazole], the kinase selectivity entry in the experiment on IRAK1 and IRAK4 is “selective for IRAK1 and IRAK4”. Further, the “signaling and cell viability in MDS” value in the experiment with MDS was “inhibit signaling and cell viability”. Further, the “apoptosis (cleaved caspase-3)” value with UMSCC1 cells is on record as “Significantly increased apoptosis”. The “apoptosis in melanoma cells” value with melanoma cells was “increase apoptosis”. Also, the “activation of IRAK1 (phosphorylation of IRAK1)” value at IRAK1 was “attenuated activation of IRAK1”.
